Results from patent US11110080B2, “Small molecule inhibitors of bacterial efflux pumps and methods of using same” (The Regents of the University of Colorado, a body Corporate, priority 2017, dated 2021).

Tests used:
[1] = test system: bacterial inner membrane potential; test: TMRM incorporation (inner membrane potential); type: cell-based, Salmonella; conditions: 30 minutes, CCCP 1 mM
Procedure: (§1) FIGS. 20A and 20B depict Bacteria treated with DMSO or EPMs [100 μM] but not CCCP [1 mM] acquire TMRM staining within 30 minutes. FIG. 20A depicts representative data from one of three independent experiments. FIG. 20B depicts median fluorescence intensity from three experiments normalized to unstained control (0). FIG. 20C depicts disk diffusion assays; the radius of the zone of growth inhibition after 16 hours of exposure to compound across a dose range. Black lines, semilog fit for the combined antibiotic data; gray lines, semilog fit for CCCP and PAβN; dotted line, limit of detection (disk radius). Average of two measurements from each image captured from one experiment representative of two independent experiments. FIGS. 20D and 20E depict nitrocefin access to the periplasm as monitored by nitrocefin [100 μM] hydrolysis in the presence of the indicated concentrations of compounds. FIG. 20D depicts absorbance 486 nm of bla+ Salmonella normalized to bla− Salmonella. […]
To establish whether the three EPMs alter bacterial inner membrane potential, their effect on the incorporation of the voltage-sensitive dye Tetramethylrhodamine methyl ester (TMRM) was observed. […] To establish whether a longer incubation with the EPMs may compromise membrane integrity, the effect of the EPMs on bacterial swimming, an energy intensive activity was monitored over 15 hours (FIGS. 20C, 10). […]

[2] = test system: S.Tm; test: Swimming assay in soft agar (proton motive force); type: cell-based, Salmonella enterica serovar Typhimurium; conditions: 50× the MIC (6.25 mM)
Procedure: One way to inhibit efflux pumps is to disrupt the proton motive force, which is required for transport by some EPs. […] Bacteria were injected into the center of 0.25% agar plates, and 10 μl of compound was added to paper disks on the periphery. […] Also ampicillin and rifampicin were tested. We plotted the halo radius versus the concentration as the fold above the MIC (FIG. 9G). […] Next, it was determined whether PAβN inhibited swimming; PAβN is thought to disrupt membranes over long incubations. […] Finally, the EPMs at […] were tested (FIGS. 9D-F).
Saturated overnight cultures were diluted to an OD600 of 0.01 in LB and 1 μL was injected into the center of low agar (0.25%) LB plates. Ten microliters of the indicated compounds were added to sterilized Whatman paper disks (diameter 0.7 cm) placed equidistant from the plate center.

[3] = test system: S.Tm in RAW 264.7 macrophages; test: SAFIRE in the presence of a transcriptional (DRB) or translational (cycloheximide) inhibitor; type: cell-based, Salmonella enterica serovar Typhimurium; conditions: 100 μM DRB or 1 μM cycloheximide, no EPM
Procedure: FIG. 13A depicts that RAWs were infected and treated with 25 μM of the indicated compounds using SAFIRE. From 2-18 hours post-infection, cells were treated with DMSO, 100 μM DRB, or 1 μM cycloheximide (CHX). Data for each inhibitor (DRB, CHX) treatment are normalized to cells not treated with EPMs, as differences in basal infection were observed (FIG. 10). Data are mean+SEM of three independent biological replicates, each performed in triplicate. FIG. 13B depicts that RAWs were seeded in 6-well dishes and treated in parallel with FIG. 13A. RNA was extracted at the indicated timepoints, reverse transcribed, and expression of the indicated genes was determined using qPCR. Data shown are mean+SEM of four separate wells from one replicate, and were performed in parallel with one replicate of (A). ****p<0.0001 compared to uninfected by two-way ANOVA with Dunnett's post-test.
Therefore, the question was whether the EPMs require host transcription or translation of AMPs or other factors, for antimicrobial activity. SAFIRE was performed in the presence of a transcriptional (DRB) or translational (cycloheximide) inhibitor (FIG. 13). Since exposure to inhibitors prior to infection greatly diminished macrophage viability, DRB or cycloheximide was added 2 hours post-infection, concurrently with EPMs. […]

[4] = test system: bacterial outer membrane; test: Nitrocefin access to the periplasm (outer membrane permeability); type: cell-based, Salmonella
Procedure: as §1, with “Salmonella. Data is representative of 3-4 independent biological replicates. FIG. 20E depicts slope of the linear region of the A486 plot from at least three experiments. Data is normalized to A486/minute. *p<0.05, ***p<0.001, ****p<0.0001 by one-way ANOVA with Dunnett's post-test.” for “Salmonella.”

[5] = test system: Salmonella enterica serovar Typhimurium (S.Tm) within RAW 264.7 murine macrophages; test: SAFIRE: fluorescence microscopy assay of S.Tm load within macrophages; type: cell-based
Procedure: A high-content, high-throughput fluorescence microscopy-based screening platform to assay S.Tm load within macrophages was developed (FIG. 1A). RAW 264.7 murine macrophages, a widely used cell line for bacterial infection studies, were infected with bacteria in a standard gentamicin protection assay. The Salmonella expressing GFP driven by the sifB promoter was incubated with the compound beginning at 2 hours post-infection. At 18 hours post-infection, cells were stained with MitoTracker Red CMXRos as a marker of macrophage vitality and processed for fluorescence microscopy. Stained with DAPI. A MATLAB®-based algorithm was developed to quantify infection (FIG. 1B) and compared to statistics to describe infection. Percentage of infected cells was determined by counting the proportion of macrophages within an image with at least 2 GFP+ pixels. Infection area was calculated by normalizing the number of GFP+ pixels within a cell to the cell's total area, then averaging across all cells in an image. To evaluate the approach, 2 μg/ml rifampicin in 96-well and 384-well plates was tested in three independent replicates. The Z′-factor was employed as a measure of assay reproducibility. Numbers close to 1 indicated high reproducibility. For percentage of infected macrophages, the Z′-factor was 0.59 and 0.48 in 96-well and 384-well plates, respectively, compared with 0.66 and 0.38 for infection area. The optimal Z′-factor threshold for high-throughput screening was 0.5; however, values above 0 were considered marginal but feasible. Therefore, the percentage of infected macrophages statistic was used.
The 14,400 compound library Maybridge HitFinder™ v11 was screened, which has been extensively screened against mammalian and microbial targets. The library was screened in duplicate at 25 μM in 384-well plates (FIG. 1C). Data were normalized using the B-score method to remove positional variation. The significance of B-scores was calculated using a modified t-test assuming an inverse gamma distribution of variances. Using a dual threshold of B-score greater than 1 and standard deviation from the mean and p-value less than 0.05, 908 compounds (6.3%) were identified that decreased or increased the percentage of infected macrophages. […] Compounds that altered infection by at least 25% in 96-well plates were considered validated hits.
For high-throughput screening and validation, 7×10^3 macrophages in 40 μL or 3×10^4 macrophages in 100 μL were seeded in 384- or 96-well black-walled, glass-bottomed plates (Brooks Automation). […] Forty-five minutes after bacterial addition, 20 or 50 μL gentamicin was added to a final concentration of 40 μg/mL. […] At 2 hours post-infection, 200 or 500 nL compound was added using a pin tool (CyBio) to yield a final concentration of 25 μM. Each assay plate included rifampicin and DMSO controls. In some experiments, media was removed and replaced with fresh medium containing 40 μg/mL gentamicin and the indicated concentrations of drugs. At 17.5 hours post-infection, PBS containing MitoTracker Red CMXRos (Life Technologies) was added to yield a final concentration of 300 nM (384-well) or 100 nM (96-well). Thirty minutes later, 16% paraformaldehyde was added to a final concentration of 1-2% and incubated at room temperature for 15 minutes. Wells were washed twice with PBS and stained for 20 minutes with 1 μM DAPI; wells were washed twice and stored in 90% glycerol in PBS until imaging.
High magnification images were acquired on an Olympus IX81 inverted widefield microscope. For screening imaging, three-color images were acquired at 10× or 20× on a Cellomics ArrayScan VTI (Thermo) and exported to DIB files. At least two images were taken per well for all experiments. […]

[6] = Freeze-thaw sensitivity of DMSO solution, read out by SAFIRE; type: physicochemical; conditions: 25 μM; freeze thawed 20 times vs freshly dissolved
Procedure: SAFIRE was used to quantify infection of macrophages treated with 25 μM nalidixic acid that was cherry-picked from the plates used to perform the screen (n=2), freshly dissolved in DMSO (n=3), or freshly dissolved and freeze thawed 20 times (n=3). Data are mean+SEM.

In the case of `N#CC(C#N)=NNc1cccc(Cl)c1` [CCCP, reference compound], the “decrease of TMRM levels versus DMSO” value [1] is reported as “approximately 50 fold” and the “halo in swimming assay” value [2] is reported as “creating a halo”.

In the case of `OC[C@H]1O[C@@H](n2cnc3cc(Cl)c(Cl)cc32)[C@H](O)[C@@H]1O` [DRB], the “basal infection of macrophages” value [3] is reported as “decreased basal infection”.

With polymyxin B the “nitrocefin access to the periplasm” value ([4]; 1 μg/mL) was “do not by themselves allow nitrocefin access to the periplasm” and the “nitrocefin access to the periplasm” value ([4]; 5 μg/mL) was “high enough to allow nitrocefin access to the periplasm”.

For `C[C@@H]1C[C@@H]([C@H](O)CC2CC(=O)NC(=O)C2)C(=O)[C@@H](C)C1` [cyclohexamide, cycloheximide], the “basal infection of macrophages” value [3] was “decreased basal infection”.

For `CCn1cc(C(=O)O)c(=O)c2ccc(C)nc21` [Nalidixic acid], the “B-score, first replicate of the screen” value ([5]; 25 μM) was −4.41, the “B-score, second replicate of the screen” value ([5]; 25 μM) was 0.70 and the “hit status in SAFIRE screen” value ([5]; Maybridge HitFinder v11 library screened at 25 μM) was “Nalidixic acid^2”. For the same compound, the “sensitivity to freeze-thawing when dissolved in DMSO” value [6] was “sensitive to freeze-thawing”.
